Test results as given in patent US7534742B2, “Isoprenoid biosynthesis” (priority 1999, dated 2009).

Target: T1, YgbP (Escherichia coli, UniProt Q46893)
T1 construct: made in house; host or cells: E. coli XL1-Blue, plasmid pNCOygbP (vector pNCO113)
Assay: Screening of 4-diphosphocytidyl-2C-methyl-D-erythritol synthase by spectrophotometric method (coupled pyrophosphate/NADP+ assay, 340 nm)
Type: biochemical, E. coli
Conditions: 37° C.
Description: Recombinant 4-diphosphocytidyl-2C-methyl-D-erythritol synthase is tested by a spectrophotometric assay at 340 nm, in which the inorganic pyrophosphate formed from 2-C-methyl-D-erythritol 4-phosphate and CTP is used in a cascade of downstream reactions leading to the reduction of NADP^+. Reactions mixtures contained 50 mM Tris hydrochloride pH 8.0, 200 μM 2C-methyl-D-erythritol 4-phosphate, 200 μM CTP, 5 mM MgCl2, 1 mM DTT, 1 μM glucose 1,6-biphosphate, 500 μM UDP-Glucose, 174 μM NADP^+, 0.125 U of UDP-glucose pyrophosphorylase, 0.16 U of phosphoglucomutase, and 1 U of glucose 6-phosphate deydrogenase, various concentrations of D-erythritol 4-phosphate respectively D-ribitol 5-phosphate as shown in Table 4 and 10 μl of enzyme in a total volume of 1 ml. One unit of enzyme activity is defined as the amount of enzyme catalyzing the conversion of 1 μmol of substrate per min at 37° C.

[1] = test compound concentration 0.2 mM
[2] = test compound concentration 0.4 mM
[3] = test compound concentration 0.8 mM
[4] = test compound concentration 1.6 mM
[5] = test compound concentration 3.2 mM

T1 sequence (Q46893 2-236): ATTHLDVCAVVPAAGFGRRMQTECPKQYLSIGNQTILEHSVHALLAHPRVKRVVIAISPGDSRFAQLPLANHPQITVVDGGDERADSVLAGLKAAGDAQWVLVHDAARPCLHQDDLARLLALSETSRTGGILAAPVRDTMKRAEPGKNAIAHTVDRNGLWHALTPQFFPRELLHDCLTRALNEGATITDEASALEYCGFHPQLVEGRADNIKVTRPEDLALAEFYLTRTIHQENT

Structure (SMILES) | specific activity [1] | specific activity (% of activity at 0 mM test compound) [1] | specific activity [2] | specific activity (% of activity at 0 mM test compound) [2] | specific activity [3] | specific activity (% of activity at 0 mM test compound) [3] | specific activity [4] | specific activity (% of activity at 0 mM test compound) [4] | specific activity [5] | specific activity (% of activity at 0 mM test compound) [5]
O=P(O)(O)OC[C@@H](O)[C@@H](O)CO [D-erythritol 4-phosphate] | 15.9 µmol/min/mg | 92% | 15.9 µmol/min/mg | 92% | 12.9 µmol/min/mg | 75% | 5.9 µmol/min/mg | 34% | 0 (0%) μmol min^−1 mg^−1 | 0 (0%)
O=P(O)(O)OC[C@@H](O)[C@@H](O)[C@@H](O)CO [D-ribitol 5-phosphate] | 16.5 µmol/min/mg | 102% |  |  |  |  | 16.9 µmol/min/mg | 105% |  | 
